According to EPA's ToxValDB 9.5:
Where a name gives a salt, the structure may show the parent alone.

Tested on: Rattus norvegicus
Conditions: oral
[1] = short-term, duration: 28 days, gavage, F, Sprague-Dawley, Deaths + Clinical Observation: Locomotor activity decrease, Abnormal respiratory sound Deep respiration Pale skin Hypothermia Ptosis …
[2] = short-term, duration: 28 days, gavage, M, Sprague-Dawley, Deaths + Clinical Observation: Locomotor activity decrease, Abnormal respiratory sound Deep respiration Pale skin Hypothermia Ptosis …
[3] = short-term, duration: 28 days, gavage, F, Sprague-Dawley, Clinical Observation: Salivation + Hematology: Hgb decrease, Hct decrease + Blood Chemistry: Bil increase, Bil increase(trend)gamma-GTP …
[4] = short-term, duration: 28 days, gavage, M, Sprague-Dawley, Clinical Observation: Salivation + Hematology: Hgb decrease, Hct decrease + Blood Chemistry: Bil increase, Bil increase(trend)gamma-GTP …

`CC(C)(C)c1cc(C(=O)O)c(O)c(C(C)(C)C)c1` [Benzoic acid, 3,5-bis(1,1-dimethylethyl)-2-hydroxy-] was tested, and the NOEL (subchronic, gavage, M, Sprague-Dawley, Blood Chemistry: ALT(GPT) increase, TG increase + Absolute Organ Weight: Liver increase + Relative Organ Weight: Liver increase) was 20 mg/kg-day.

`CN(C)c1cccc(C(=O)O)c1` [Benzoic acid, 3-(dimethylamino)-] gave an NOEL (subchronic, gavage, M, Sprague-Dawley, Clinical Observation: Salivation + Blood Chemistry: Bil increase, Cl decrease + Relative Organ Weight: Heart increase) of 200 mg/kg-day.

With `O=C(O)CCCN1CCC(O[C@@H](c2ccc(Cl)cc2)c2ccccn2)CC1.O=S(=O)(O)c1ccccc1` [Bepotastine besylate] the NOAEL (short-term, duration: 28 days, gavage, M/F, CD, Clinical Observation: Mydriasis Salivation Soiled perineal region + Body Weight Changes: decrease + Food Consumption: decrease + Urinalysis…) was 100 mg/kg-day.

In the case of `CCCCCOC(=O)c1c(Cl)c(Cl)cc(Cl)c1OC(=O)C(=O)Oc1c(Cl)cc(Cl)c(Cl)c1C(=O)OCCCCC` [Bis(2,4,5-trichloro-6-carbopentoxyphenyl) oxalate], the NOEL (short-term, duration: 28 days, gavage, M/F, Deaths + Clinical Observation: Salivation + Hematology: PT increase, APTT increase + Blood Chemistry: TP increase, ALB increase, TG …) is reported as < 8 mg/kg-day.

With `ClCBr` [Bromochloromethane] the NOEL (subchronic, duration: 42 days, gavage, M, CD(SD), Absolute Organ Weight: Liver increase + Relative Organ Weight: Liver increase + Necropsy: Stomach-Dark red focus, glandular stomach + …) was 30 mg/kg-day.

Molecule `O=[N+]([O-])C(Br)(CO)CO` [Bronopol] has an LOEL [1] of 30 mg/kg-day, an NOEL [1] of 10 mg/kg-day and an LOEL [2] of 90 mg/kg-day. The NOEL [2] was 30 mg/kg-day.

`CCC(Cl)C(Cl)C(Cl)CC(Cl)C(Cl)C(C)Cl` (stereo unspecified) [C10-12 chloroalkanes] was tested, and the NOEL (subchronic, duration: 13 weeks, gavage, M/F, Fischer 344, Clinical Observation: Inactive + Body Weight Changes: decrease + Relative Organ Weight: Liver increase + Histopathology: Liver-Hypertrophy, …) was < 313 mg/kg-day.

In the case of `O=[N+]([O-])c1ccc(Nc2ccc(Nc3ccccc3)c(S(=O)(=O)[O-])c2)c([N+](=O)[O-])c1.[Na+]` [C.I. Acid Orange 3], the NOEL (subchronic, duration: 13 weeks, gavage, M/F, Fischer 344, Deaths + Body Weight Changes: decrease + Histopathology: Kidney-Nephrosis Kidney-Suppurative inflammation Kidney/Renal papilla - Necrosis …) is reported as 750 mg/kg-day.

`Cc1[nH]n(-c2ccccc2)c(=O)c1N=Nc1ccc(-c2ccc(N=Nc3c(C)[nH]n(-c4ccccc4)c3=O)c(Cl)c2)cc1Cl` [C.I. Pigment Orange 13] was tested, and the NOEL (subchronic, gavage, Sprague-Dawley) was 1000 mg/kg-day.

With `COc1ccc([N+](=O)[O-])cc1N=Nc1c(O)c(C(=O)Nc2cccc([N+](=O)[O-])c2)cc2ccccc12` [C.I. Pigment Red 23] the NOEL (subchronic, duration: 13 weeks, diet, M/F, Fischer 344, Hematology: Hct decrease, Hgb decrease, RBC decrease + Blood Chemistry: LDH increase + Absolute Organ Weight: Liver + Relative Organ Weight…) was < 288 mg/kg-day.

`CCCC(C)(COC(N)=O)COC(=O)NC(C)C` (stereo unspecified) [Carisoprodol] was tested, and the NOEL (subchronic, gavage, M/F, Fischer 344, Deaths + Clinical Observation: Lethargy Ataxia + Absolute Organ Weight: Right kidney increase, Liver increase + Relative Organ Weight: Right…) was < 100 mg/kg-day and the NOEL (subchronic, gavage, M/F, Fischer 344, Deaths + Clinical Observation: Lethargy Diarrhea Rough hair coat Prostration Urine stain in the vaginal area Ataxia + Body Weight Changes: …) was < 100 mg/kg-day.

Work on `COc1ccccc1OCCNCC(O)COc1cccc2[nH]c3ccccc3c12` (stereo unspecified) [Carvedilol] yielded an NOEL (chronic, duration: 91 days, gavage, M/F, Wistar, Deaths + Clinical Observation: Salivation Lacrimation Ptosis Locomotor activity decrease + Body Weight Changes: Body weight gain decrease + …) of 30 mg/kg-day.

`Oc1ccc(Cl)cc1Cc1ccccc1` [Clorophene] was tested, and the NOEL (subchronic, duration: 13 weeks, gavage, M/F, Fischer 344, Deaths + Clinical Observation: Red-yellow staining of urogenital region hair coat Alopecia of head Brown discoloration of hair coat around …) was < 30 mg/kg-day.

Work on `C=CCOC(=O)c1ccccc1C(=O)OCC=C` [Diallyl phthalate] yielded an NOEL (subchronic, duration: 13 weeks, gavage, M/F, Fischer 344, Deaths + Histopathology: Liver/periportal-Hepatocellular alteration Liver/periportal-Necrosis Liver/periportal-Fibrosis Liver/bile duct- …) of 25 mg/kg-day.

In the case of `CCCCCCC[CH2][Sn]([Cl])([Cl])[CH2]CCCCCCC` [Dichloro(dioctyl)stannane], the NOAEL (subchronic, duration: 90 days, diet, M/F, Wistar, Body Weight Changes: Weight gain decrease + Food Consumption: decrease + Urinalysis: Crystals increase + Hematology: RBC decrease, HGB …) is reported as > 0.96 mg/kg-day.

`O[Si](O)(C1CCCC1)C1CCCC1` [Dicyclopentylsilanediol] gave an NOEL (subchronic, duration: 90 days, gavage, M, Sprague-Dawley, Clinical Observation: Ataxic gait SalivationDecreased locomotor activity + Blood Chemistry: TG decrease + Relative Organ Weight: Liver …) of 40 mg/kg-day.

`c1cc(OCC2CO2)cc(OCC2CO2)c1` (stereo unspecified) [Diglycidyl resorcinol ether] was tested, and the NOEL (subchronic, duration: 13 weeks, gavage, M/F, Fischer 344, Deaths + Body Weight Changes: decrease + Histopathology: Stomach/forestomach-Inflammation Stomach/forestomach-Basal cell hyperplasia Stomach…) was < 12.5 mg/kg-day.

`COC(=O)CCCC(=O)OC` [Dimethyl glutarate] showed an NOAEL (subchronic, duration: 42 days, gavage, M, CD(SD), Urinalysis: pH decrease(trend) + Histopathology: Stomach-Hyperplasia, squamous, limiting ledge) of 300 mg/kg-day.

For `CCCCCCCCCCCCCCCCCCCCCC[N+](C)(C)C.[Cl-]` [Docosyltrimethylammonium chloride], the NOEL (subchronic, gavage, M, Sprague-Dawley, Clinical Observation: Salivation Perinasal and perioral smudge Soft stool and diarrhea + Body Weight Changes: decrease, R + Food …) was < 5 mg/kg-day.

For `COC(CCl)OC` [Ethane, 2-chloro-1,1-dimethoxy-], the NOEL (short-term, duration: 28 days, gavage, M/F, Blood Chemistry: GPT increase, ALP increase, T-Bil increase, IP decrease + Organ Weight: Liver increase, Spleen decrease, Kidney increase, …) was 15 mg/kg-day.

In the case of `CC[Si](Cl)(Cl)Cl` [Ethyl silicon trichloride], the NOAEL (short-term, duration: 28 days, gavage, M/F, Wistar, Clinical Observation: Staggering gait + Body Weight Changes: decrease + Relative Organ Weight: Liver increase, (Low and middle doses were …) is reported as 250 mg/kg-day.

With `CCC1CCCCC1` [Ethylcyclohexane] the LOEL [3] was 200 mg/kg-day, the NOEL [3] was 40 mg/kg-day and the LOEL [4] was 200 mg/kg-day. It also gave an NOEL [4] of 40 mg/kg-day.

`C(COCC1CO1)OCC1CO1` (stereo unspecified) [Ethylene glycol diglycidyl ether] gave an NOEL (subchronic, duration: 42 days, gavage, M, CD(SD), Clinical Observation: Salivation + Body Weight Changes: decrease + Food Consumption: decrease + Blood Chemistry: TG decrease + …) of 12.5 mg/kg-day.

`CC(C)OC(=O)C(C)(C)Oc1ccc(C(=O)c2ccc(Cl)cc2)cc1` [Fenofibrate] showed an NOAEL (chronic, duration: 91 days, gavage, M/F, CD, Body Weight Changes: decrease + Food Consumption: decrease + Urinalysis: WBCEpithelial cell + Hematology: RBC decrease, HCT decrease, HGB …) of 5 mg/kg-day.
